Where “and” joins values, the source holds several entries; their conditions need not be identical. Equal entries are not always repeated. Entries after “also recorded” stand apart in the source; their conditions may differ.
How the values were obtained:
HPTP-β = HPTP-β (Homo sapiens (Human), UniProt P23467); experiment: HPTP-β inhibition (IC50); type: biochemical; details: read-out: HPTPβ IC50
[1] = system: patients with diabetic macular edema; experiment: Central Foveal Thickness by ocular coherence tomography in diabetic macular edema patients given the disclosed compound subcutaneously plus intravitreal anti-VEGF agent; type: in vivo, human
Protocol: The disclosed Figures represent a control or baseline study used as a benchmark for determining the effectiveness of the disclosed methods for treating ocular diseases (FIGS. 1 and 3) and studies directed to the disclosed methods. Described herein below, four patients with visual acuity loss due to diabetic macular edema (central retinal thickness [CRT] of more than 325 microns and best corrected visual acuity less than 70 letters) were treated with subcutaneous injections of 5 mg of the disclosed compound twice a day for 28 days and then observed for an additional two months (days 28 through 84). At any time during the course of the study, investigators could administer additional therapy consisting of intravitreal injection of an anti-VEGF agent, for example, ranibizumab, bevacizumab and/or aflibercept if considered by the investigator to be medically necessary. Retinal thickness as measured by ocular coherence tomography and best corrected visual acuity as measured by a standard vision test were assessed at regular intervals during the 28 day active treatment phase and through the 2 month post-treatment observation phase, (Screening, Day 1 [baseline], Day 7, Day 14, Day 21, Day 28, Day 42, Day 56 and Day 84). The main efficacy outcomes for the study were change in CRT and visual acuity over time with treatment. FIG. 2 depicts the results of a study wherein 4 patients received 5 mg of the disclosed compound subcutaneously twice daily for 28 days and subsequently were treated in one or both eyes (7 eyes total) with either ranibizumab (0.3 or 0.5 mg) or aflibercept (2 mg) by intravitreal injection at the discretion of the study investigator. […] The mean change in Central Foveal Thickness was −289 μm, approximately double the reduction seen 7 days to one month after ranibizumab injection in the benchmark study as depicted in FIG. 1. FIG. 5 represents the results of a single patient. The eye having the greater Central Foveal Thickness is chosen as the Study Eye. The patient from day one was given 5 mg of the disclosed compound subcutaneously twice daily. At week 3 (21 days, indicated by arrow) the fellow eye is treated with 0.5 mg of ranibizumab. At week 6 (42 days, indicated by arrow) the treated eye is treated with 0.5 mg of ranibizumab. […] Without wishing to be limited by theory, it is believed that when the fellow eye is treated with an injection of 0.5 mg of ranibizumab, the ranibizumab enters the study eye systemically. […] At week 6, the study eye is treated with an intravitreal injection of 0.5 mg of ranibizumab. As depicted in FIG. 5, by week 8, there is an overall reduction in CFT of approximately 690 μm, wherein the CFT of the subject eye is approximately 180 μm. Although the Fellow Eye began with less CFT than the study eye, nevertheless, treatment with ranibizumab at week 3 (day 21) produced a change in CFT of approximately 430 μm. […] FIG. 6 represents the results of a single patient. The eye having the greater Central Foveal Thickness is chosen as the Treated Eye (Study Eye). The patient from day one was given 5 mg of the disclosed compound subcutaneously twice daily. At week 3 (21 days, indicated by arrow) the fellow eye is rescued with 2 mg of aflibercept. […] At week 6 (42 days, indicated by arrow) the treated eye is rescued with 2 mg of aflibercept. […] The disclosed Figures represent a control or baseline study used as a benchmark for determining the effectiveness of the disclosed methods for treating ocular diseases (FIGS. 1 and 3) and studies directed to the disclosed methods. Described herein below, four patients with visual acuity loss due to diabetic macular edema (central retinal thickness [CRT] of more than 325 microns and best corrected visual acuity less than 70 letters) were treated with subcutaneous injections of 5 mg of the disclosed compound twice a day for 28 days and then observed for an additional two months (days 28 through 84). […]

[2] = system: patients with diabetic macular edema; experiment: Best corrected visual acuity (letters) in diabetic macular edema patients given the disclosed compound subcutaneously plus intravitreal anti-VEGF agent; type: in vivo, human; details: 5 mg s.c. twice daily 28 days, then ranibizumab or aflibercept intravitreal; 14-28 days post anti-VEGF (FIG. 4)
Protocol: The disclosed Figures represent a control or baseline study used as a benchmark for determining the effectiveness of the disclosed methods for treating ocular diseases (FIGS. 1 and 3) and studies directed to the disclosed methods. Described herein below, four patients with visual acuity loss due to diabetic macular edema (central retinal thickness [CRT] of more than 325 microns and best corrected visual acuity less than 70 letters) were treated with subcutaneous injections of 5 mg of the disclosed compound twice a day for 28 days and then observed for an additional two months (days 28 through 84). At any time during the course of the study, investigators could administer additional therapy consisting of intravitreal injection of an anti-VEGF agent, for example, ranibizumab, bevacizumab and/or aflibercept if considered by the investigator to be medically necessary. Retinal thickness as measured by ocular coherence tomography and best corrected visual acuity as measured by a standard vision test were assessed at regular intervals during the 28 day active treatment phase and through the 2 month post-treatment observation phase, (Screening, Day 1 [baseline], Day 7, Day 14, Day 21, Day 28, Day 42, Day 56 and Day 84). The main efficacy outcomes for the study were change in CRT and visual acuity over time with treatment. […]

[3] = single patient (FIG. 5), 5 mg s.c. twice daily, study eye given 0.5 mg ranibizumab at week 6
[4] = single patient, aflibercept protocol (FIG. 6)

HPTP-β, sequence (P23467 23-1997): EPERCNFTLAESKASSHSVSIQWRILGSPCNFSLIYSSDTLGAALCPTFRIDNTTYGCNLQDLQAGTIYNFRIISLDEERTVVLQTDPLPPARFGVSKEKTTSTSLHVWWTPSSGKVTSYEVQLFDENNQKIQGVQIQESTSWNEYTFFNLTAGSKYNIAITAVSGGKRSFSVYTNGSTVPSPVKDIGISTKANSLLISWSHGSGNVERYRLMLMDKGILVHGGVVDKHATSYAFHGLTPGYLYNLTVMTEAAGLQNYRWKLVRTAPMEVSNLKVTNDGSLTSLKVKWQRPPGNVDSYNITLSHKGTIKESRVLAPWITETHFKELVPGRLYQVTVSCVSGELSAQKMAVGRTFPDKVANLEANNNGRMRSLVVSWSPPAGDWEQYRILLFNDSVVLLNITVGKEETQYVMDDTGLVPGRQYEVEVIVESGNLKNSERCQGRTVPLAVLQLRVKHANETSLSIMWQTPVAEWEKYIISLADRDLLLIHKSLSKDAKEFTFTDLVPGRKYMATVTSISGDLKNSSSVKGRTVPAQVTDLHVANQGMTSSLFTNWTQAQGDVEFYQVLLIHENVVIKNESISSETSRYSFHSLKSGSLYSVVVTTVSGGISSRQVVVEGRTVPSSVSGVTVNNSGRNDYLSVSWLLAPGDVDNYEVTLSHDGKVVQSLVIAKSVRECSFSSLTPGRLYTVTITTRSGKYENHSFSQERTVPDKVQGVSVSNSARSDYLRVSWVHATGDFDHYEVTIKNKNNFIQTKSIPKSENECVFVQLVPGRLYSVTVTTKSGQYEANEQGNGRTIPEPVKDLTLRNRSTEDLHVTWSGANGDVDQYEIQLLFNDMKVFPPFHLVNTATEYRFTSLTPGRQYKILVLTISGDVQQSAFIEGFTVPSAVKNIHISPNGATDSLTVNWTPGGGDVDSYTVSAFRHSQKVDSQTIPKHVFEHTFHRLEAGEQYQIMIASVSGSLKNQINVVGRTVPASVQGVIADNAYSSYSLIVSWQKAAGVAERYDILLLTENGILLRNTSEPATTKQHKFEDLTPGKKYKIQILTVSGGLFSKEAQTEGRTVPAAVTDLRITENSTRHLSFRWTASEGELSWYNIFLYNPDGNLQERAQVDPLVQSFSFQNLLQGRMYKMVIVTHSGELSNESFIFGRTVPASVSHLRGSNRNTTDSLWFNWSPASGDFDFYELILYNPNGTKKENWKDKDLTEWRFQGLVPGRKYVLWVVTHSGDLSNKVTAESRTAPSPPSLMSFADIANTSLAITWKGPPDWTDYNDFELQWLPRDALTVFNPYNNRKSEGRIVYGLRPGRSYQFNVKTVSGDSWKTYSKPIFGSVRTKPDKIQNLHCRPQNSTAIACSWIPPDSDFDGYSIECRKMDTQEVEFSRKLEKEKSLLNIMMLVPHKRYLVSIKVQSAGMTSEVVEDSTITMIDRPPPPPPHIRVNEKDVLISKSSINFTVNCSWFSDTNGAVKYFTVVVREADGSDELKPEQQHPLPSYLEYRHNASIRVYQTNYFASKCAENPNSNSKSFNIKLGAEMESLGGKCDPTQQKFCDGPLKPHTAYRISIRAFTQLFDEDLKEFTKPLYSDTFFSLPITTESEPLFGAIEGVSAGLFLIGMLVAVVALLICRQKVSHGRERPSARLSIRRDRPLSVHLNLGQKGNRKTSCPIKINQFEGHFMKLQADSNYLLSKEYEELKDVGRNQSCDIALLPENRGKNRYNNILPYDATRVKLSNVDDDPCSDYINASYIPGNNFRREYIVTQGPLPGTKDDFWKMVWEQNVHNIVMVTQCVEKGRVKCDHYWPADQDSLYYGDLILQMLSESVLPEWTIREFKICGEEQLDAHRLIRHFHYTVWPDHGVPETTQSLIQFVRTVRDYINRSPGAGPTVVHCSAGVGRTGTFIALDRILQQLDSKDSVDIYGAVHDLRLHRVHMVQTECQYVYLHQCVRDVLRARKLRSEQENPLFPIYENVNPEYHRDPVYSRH

Row | SMILES | IC50 (HPTP-β) [pM] | Central Foveal Reduction, individual patient eye ([1]; 5 mg s.c. twice daily 28 days, then ranibizumab (0.3 or 0.5 mg) or aflibercept (2 mg) intravitreal, 14-28 days post anti-VEGF, 7 eyes (FIG. 2)) | mean change in Central Foveal Thickness ([1]; 5 mg s.c. twice daily 28 days, then ranibizumab or aflibercept intravitreal, 14-28 days post anti-VEGF, 7 eyes (FIG. 2)) [μm] | CFT reduction relative to reduction after ranibizumab in benchmark study ([1]; combination versus FIG. 1 benchmark) | CFT of study eye at week 6 ([1]; single patient (FIG. 5), 5 mg s.c. twice daily, before ranibizumab to study eye) | change in CFT, fellow eye, after ranibizumab at week 3 ([1]; single patient (FIG. 5), 5 mg s.c. twice daily, fellow eye given 0.5 mg ranibizumab at day 21, by week 4) | reduction in CFT, study eye, day 21 to day 28 ([1]; single patient (FIG. 5), 5 mg s.c. twice daily, fellow eye given 0.5 mg ranibizumab at week 3) | CFT of study eye at week 8 [1, 3] | overall reduction in CFT, study eye, by week 8 [1, 3] | CFT reduction, fellow eye, after rescue ([1]; single patient (FIG. 6), 5 mg s.c. twice daily, fellow eye rescued with 2 mg aflibercept) | CFT reduction, study eye, after rescue ([1]; single patient (FIG. 6), 5 mg s.c. twice daily, study eye rescued with 2 mg aflibercept at week 6) | reduction of CFT from onset of the study, non-treated eye [1, 4] [μm] | reduction of CFT from onset of the study, study eye [1, 4] | mean change in Visual Acuity [2] [letters]
1 | COC(=O)N[C@@H](Cc1ccccc1)C(=O)N[C@@H](Cc1ccc(NS(=O)(=O)O)cc1)c1nc(-c2ccccc2)cs1 [AA21, 4-{(S)-2-[(S)-2-(Methoxycarbonylamino)-3-phenylpropanamido]-2-(4-phenylthiazol-2-yl)ethyl}phenylsulfamic acid] | < 2 | – | – | – | – | – | – | – | – | – | – | – | – | –
2 | COC(=O)N[C@@H](Cc1ccccc1)C(=O)N[C@@H](Cc1ccc(NS(=O)(=O)O)cc1)c1csc(-c2cccs2)n1 [the disclosed compound, 4-{(S)-2-[(S)-2-(methoxycarbonylamino)-3-phenylpropanamido]-2-[2-(thiophen-2-yl)thiazol-4-yl]ethyl}phenylsulfamic acid] | – | 50-100 μm and 150-200 μm and 200-250 μm and 300-350 μm and 350-400 μm and 450-500 μm | −289 | approximately double | approximately 775 μm | approximately 430 μm and 350 μm | approximately 300 μm; also recorded: approximately 250 μm | approximately 180 μm; also recorded: approximately 225 μm | approximately 690 μm; also recorded: approximately 500 μm | approximately 400 μm | approximately 310 μm; also recorded: approximately 300 μm | ~280 | approximately 300 μm | 9
